# Species on record: Rattus norvegicus
# Experiment: DrugMatrix - Regimen: Daily Repeat
# Type: toxicity, organism-based, Sprague-Dawley
# Set-up: regimen Daily Repeat, gender Male, age 6-8 weeks
# Settings: in vivo, po, route oral GAVAGE, vehicle .5 % CMC; for URIC ACID / ALANINE AMINOTRANSFERASE / ALBUMIN / ALKALINE PHOSPHATASE / ASPARTATE AMINOTRANSFERASE / BLOOD UREA NITROGEN / CARBON DIOXIDE / CHLORIDE / CHOLESTEROL / CREATINE PHOSPHOKINASE / CREATININE / GLUCOSE / LACTATE DEHYDROGENASE / LIPASE / PHOSPHORUS / POTASSIUM / SODIUM / TOTAL BILIRUBIN / TOTAL PROTEIN: tissue Plasma; for ABSOLUTE BASOPHIL / ABSOLUTE EOSINOPHIL / ABSOLUTE LYMPHOCYTE / ABSOLUTE MONOCYTE / ABSOLUTE SEGMENTED NEUTROPHIL / BASOPHIL / EOSINOPHIL / ERYTHROCYTE COUNT / HEMATOCRIT / HEMOGLOBIN / LEUKOCYTE COUNT / LYMPHOCYTE / MEAN CORPUSCULAR HEMOGLOBIN / MEAN CORPUSCULAR HEMOGLOBIN CONCENTRATION / MONOCYTE / NEUTROPHIL / NUCLEATED RED BLOOD CELLS / PLATELET COUNT: tissue Blood
# [1] = 10 mg/kg, 120 h, dose level Low, time 5 day
# [2] = 269 mg/kg, 72 h, dose level High, time 3 day
# [3] = 269 mg/kg, 120 h, dose level High, time 5 day
smiles,measurement,setting,value
O=C1C(CC[S+]([O-])c2ccccc2)C(=O)N(c2ccccc2)N1c1ccccc1 (stereo unspecified) [SULFINPYRAZONE],URIC ACID,"10 mg/kg, 72 h, dose level Low, time 3 day",2 mg/dL
same,ABSOLUTE BASOPHIL,[1],0 CELLS/uL
same,ABSOLUTE EOSINOPHIL,[1],0 CELLS/uL
same,ABSOLUTE LYMPHOCYTE,[1],8238.33 CELLS/uL
same,ABSOLUTE MONOCYTE,[1],0 CELLS/uL
same,ABSOLUTE SEGMENTED NEUTROPHIL,[1],761.67 CELLS/uL
same,BASOPHIL,[1],0%
same,EOSINOPHIL,[1],0%
same,ERYTHROCYTE COUNT,[1],5.27 x10E6/uL
same,HEMATOCRIT,[1],33.27%
same,HEMOGLOBIN,[1],13.03 G/DL
same,LEUKOCYTE COUNT,[1],9 x10E3/uL
same,LYMPHOCYTE,[1],91.67%
same,MEAN CORPUSCULAR HEMOGLOBIN,[1],24.77 pg
same,MEAN CORPUSCULAR HEMOGLOBIN CONCENTRATION,[1],39.17 G/DL
same,MONOCYTE,[1],0%
same,NEUTROPHIL,[1],8.33%
same,NUCLEATED RED BLOOD CELLS,[1],0 /100WBC
same,PLATELET COUNT,[1],1182 x10E3/uL
same,ALANINE AMINOTRANSFERASE,[1],51.33 u/L
same,ALBUMIN,[1],4.23 G/DL
same,ALKALINE PHOSPHATASE,[1],307 u/L
same,ASPARTATE AMINOTRANSFERASE,[1],86.67 u/L
same,BLOOD UREA NITROGEN,[1],15.33 mg/dL
same,CARBON DIOXIDE,[1],30 mmol/L
same,CHLORIDE,[1],102 MEQ/L
same,CHOLESTEROL,[1],63.67 mg/dL
same,CREATINE PHOSPHOKINASE,[1],204 u/L
same,CREATININE,[1],0.19 mg/dL
same,GLUCOSE,[1],139.33 mg/dL
same,LACTATE DEHYDROGENASE,[1],126 u/L
same,LIPASE,[1],9 u/L
same,PHOSPHORUS,[1],11.67 mg/dL
same,POTASSIUM,[1],6.44 MEQ/L
same,SODIUM,[1],148.53 MEQ/L
same,TOTAL BILIRUBIN,[1],0.27 mg/dL
same,TOTAL PROTEIN,[1],6.3 G/DL
same,URIC ACID,[1],1 mg/dL
same,ABSOLUTE BASOPHIL,[2],0 CELLS/uL
same,ABSOLUTE EOSINOPHIL,[2],0 CELLS/uL
same,ABSOLUTE LYMPHOCYTE,[2],15229.67 CELLS/uL
same,ABSOLUTE MONOCYTE,[2],176.67 CELLS/uL
same,ABSOLUTE SEGMENTED NEUTROPHIL,[2],1627 CELLS/uL
same,BASOPHIL,[2],0%
same,EOSINOPHIL,[2],0%
same,ERYTHROCYTE COUNT,[2],4.48 x10E6/uL
same,HEMATOCRIT,[2],28.7%
same,HEMOGLOBIN,[2],11.63 G/DL
same,LEUKOCYTE COUNT,[2],17.03 x10E3/uL
same,LYMPHOCYTE,[2],89.67%
same,MEAN CORPUSCULAR HEMOGLOBIN,[2],26.03 pg
same,MEAN CORPUSCULAR HEMOGLOBIN CONCENTRATION,[2],40.6 G/DL
same,MONOCYTE,[2],1%
same,NEUTROPHIL,[2],9.33%
same,NUCLEATED RED BLOOD CELLS,[2],0 /100WBC
same,PLATELET COUNT,[2],1194 x10E3/uL
same,ALBUMIN,[2],3.87 G/DL
same,ALKALINE PHOSPHATASE,[2],319.33 u/L
same,ASPARTATE AMINOTRANSFERASE,[2],92.67 u/L
same,BLOOD UREA NITROGEN,[2],16 mg/dL
same,CARBON DIOXIDE,[2],21.33 mmol/L
same,CHLORIDE,[2],105.67 MEQ/L
same,CHOLESTEROL,[2],78.67 mg/dL
same,CREATINE PHOSPHOKINASE,[2],438 u/L
same,CREATININE,[2],0.18 mg/dL
same,GLUCOSE,[2],147 mg/dL
same,LACTATE DEHYDROGENASE,[2],291 u/L
same,LIPASE,[2],10.33 u/L
same,PHOSPHORUS,[2],11.97 mg/dL
same,POTASSIUM,[2],6.1 MEQ/L
same,SODIUM,[2],145.03 MEQ/L
same,TOTAL BILIRUBIN,[2],0.23 mg/dL
same,TOTAL PROTEIN,[2],5.5 G/DL
same,URIC ACID,[2],1.4 mg/dL
same,ABSOLUTE BASOPHIL,[3],0 CELLS/uL
same,ABSOLUTE EOSINOPHIL,[3],0 CELLS/uL
same,ABSOLUTE LYMPHOCYTE,[3],20046 CELLS/uL
same,ABSOLUTE MONOCYTE,[3],55 CELLS/uL
same,ABSOLUTE SEGMENTED NEUTROPHIL,[3],2899 CELLS/uL
same,BASOPHIL,[3],0%
same,EOSINOPHIL,[3],0%
same,ERYTHROCYTE COUNT,[3],5.28 x10E6/uL
same,HEMATOCRIT,[3],32.4%
same,HEMOGLOBIN,[3],13.17 G/DL
same,LEUKOCYTE COUNT,[3],23 x10E3/uL
same,LYMPHOCYTE,[3],87.33%
same,MEAN CORPUSCULAR HEMOGLOBIN,[3],24.9 pg
same,MEAN CORPUSCULAR HEMOGLOBIN CONCENTRATION,[3],40.63 G/DL
same,MONOCYTE,[3],0.33%
same,NEUTROPHIL,[3],12.33%
same,NUCLEATED RED BLOOD CELLS,[3],0 /100WBC
same,PLATELET COUNT,[3],1314.67 x10E3/uL
same,ALANINE AMINOTRANSFERASE,[3],59.33 u/L
same,ALBUMIN,[3],4.13 G/DL
same,ALKALINE PHOSPHATASE,[3],291.33 u/L
same,ASPARTATE AMINOTRANSFERASE,[3],70.33 u/L
same,BLOOD UREA NITROGEN,[3],15 mg/dL
same,CARBON DIOXIDE,[3],26.67 mmol/L
same,CHLORIDE,[3],102.33 MEQ/L
same,CHOLESTEROL,[3],77 mg/dL
same,CREATINE PHOSPHOKINASE,[3],224.33 u/L
same,CREATININE,[3],0.25 mg/dL
same,GLUCOSE,[3],143.67 mg/dL
same,LACTATE DEHYDROGENASE,[3],78.33 u/L
same,LIPASE,[3],9 u/L
same,PHOSPHORUS,[3],12.43 mg/dL
same,POTASSIUM,[3],6.73 MEQ/L
same,SODIUM,[3],147 MEQ/L
same,TOTAL BILIRUBIN,[3],0.23 mg/dL
same,TOTAL PROTEIN,[3],6 G/DL
same,URIC ACID,[3],1.53 mg/dL
